Tests used:
[1] = test system: retinoid X receptor (RXR); assay: RXR luciferase reporter in transfected 3T3-L1 preadipocytes; format: cell-based; conditions: ABA 10 μM with 9-cis retinoic acid 10 μM
Procedure: A pCMX.L-RXR or pCMX.RAR expression plasmid and a luciferase reporter plasmid were purified using Qiagen's Maxi kit (Valencia, Calif.). 3T3-L1 preadipocytes (American Type Culture Collection, Manassas, Va.) were grown in DMEM high glucose medium (Invitrogen, Carlsbad, Calif.) containing 10% fetal bovine serum (FBS). The cells cultured in 25 cm^2 flasks were co-transfected with 0.6 ug plasmid DNA and 1 ng of pRL reporter control plasmid per well using F-2 transfection reagents (Targeting Systems, Santee, Calif.) according to the manufacturer's protocol. After 24 hours, transfected cells were split trypsin and seeded into 96-well white plates at a concentration of 20,000 cells/wells. The transfected cells were then treated with 9-cis retinoic acid (0, 10 μM; Sigma), or retinoic acid (RA, 10 μM; Sigma), with ABA (10 μM; Sigma) Transfected cells were harvested in reporter lysis reagent. Luciferase activity, normalized to pRL activity in the cell extracts was determined by using the dual luciferase reporter assay system (Promega, Madison, Wis.) in a Modulus 96-well plate reader (Turner Biosystems, Sunnyvale, Calif.). Relative luciferase activity (RLA) was calculated as a ratio of the chemiluminescence 10 seconds after the Luciferase Assay Reagent II (Promega) was added over the chemiluminescence 10 seconds after the Stop&Glo Reagent (Promega).

[2] = test system: blood CCR2+CD11b+ monocytes and regulatory T cells (Tregs); assay: Blood immune cell populations of db/db mice, flow cytometry; format: in vivo; conditions: whole blood
Procedure: Obese db/db mice were fed high-fat diets containing 0, 15, or 70 mg/kg diet rosiglitazone maleate (control, Ros^lo, and Ros^hi, respectively) with and without racemic ABA (100 mg/kg diet). On day 60 the percent of F4/80+CD11b+ in the stromal vascular fractions of abdominal white adipose tissue (Ab. WAT) (A) and subcutaneous WAT (B) were assessed by flow cytometry. The percent of CD11b+CCR2+ monocytes (C) and CD4+CD25+FoxP3+ Tregs (D) in blood were assessed in whole blood. The expressions of the M1 marker CCL17 (E) and peroxisome proliferator activated receptor γ (PPAR γ) (F) in Ab. WAT were calculated as a ratio to the housekeeping gene f3-actin. Data are represented as mean±standard error.
Mice (n=40) were fed one of six experimental diets: a control high-fat diet (control), a high-fat diet containing low dose rosiglitazone maleate (Ros^lo, 10 mg/kg diet), or a high-fat diet containing a high dose of rosiglitazone maleate (Ros^hi, 70 mg/kg diet), each with or without all racemic ABA (100 mg/kg, Sigma Aldrich, St. Louis, Mo.) for 60 days. […] Blood glucose levels were assessed with an ACCU-CHEK® Glucometer (Roche, Indianapolis, Ind.). An intraperitoneal glucose tolerance test (IPGTT, 1 g glucose/kg body weight) was conducted on fasted mice (12 h) for 0, 30, 90, and 180 minute time points and insulin levels were measured on day 54. […]

[3] = test system: stromal vascular cells (SVCs); assay: Gene expression in LPS-treated stromal vascular cells; format: cell-based, mice; conditions: LPS 100 ng/mL, 6 h, ABA 10 μM, rosiglitazone 1 μM
Procedure: SVCs from abdominal white adipose tissue were isolated from db/db mice fed high-fat control diet for 60 days. Cells were seeded into 24-well plates at 1×10^6 cells/well and treated with LPS (100 ng/mL) with and without ABA (10 μM), Ros (1 μM), or ABA and Ros (ABA/Ros). The relative expressions of genes peroxisome proliferator activated receptor γ (PPAR γ) (A), CCL17 (B), monocyte chemoattractant protein 1 (MCP-1) (C), and mannose receptor (D) were calculated as a ratio to the housekeeping gene β-actin. Data are represented as mean±standard error.
Isolated cells from the stromal vascular fraction (SVF) of WAT from high-fat fed db/db mice were enumerated and seeded into 24-well plates at […] cells/well. […]
Total RNA was isolated from adipose tissue using the RNeasy Lipid Mini Kit (Qiagen) and from cells using the RNeasy Mini Kit (Qiagen) according to the manufacturer's instructions. […] Each gene amplicon was purified with the MiniElute PCR Purification Kit (Qiagen) and quantitated on an agarose gel by using a DNA mass ladder (Promega). […]
Complementary DNA (cDNA) concentrations for genes of interest were examined by real-time quantitative PCR using an iCycler IQ System and Sybr Green PCR master mix (Applied Biosystems, Foster City, Calif.). […] Results are presented as starting quantity of target cDNA (picograms) per microgram of total RNA.

CC1=CC(=O)CC(C)(C)C1(O)/C=C/C(C)=C\C(=O)O (racemic) [ABA, abscisic acid]
activity of RXR ligands [1]: synergistically enhances | blood CCR2+CD11b+ monocyte levels [2]: mitigated | percentages of blood regulatory T cells (Tregs) ([2]; independently of Ros): increased | M1 marker CCL17 expression [3]: significantly reduced

Source: patent publication US9119881B2, “Method of synergistically enhancing the therapeutic efficacy and safety of medication through a combination therapy” (priority 2010, dated 2015)
